Reference: BindingDB's records for doi:10.3109/14756366.2010.515215 (Gyeongsang National University, 2011)

What was measured:
Experiment in all cases: In Vitro Kinase Assay
Conditions in all cases: pH 7
[1] = biological target: ALK tyrosine kinase receptor (Homo sapiens, UniProt Q9UM73)
Method: (§1) Inhibition of kinase activity against a variety of recombinant kinases [FLT3, FLT3 D835Y, anaplastic lymphoma kinase (ALK), insulin receptor, and epidermal growthfactor receptor (EGFR)] was measured using homogeneous time-resolved fluorescence (HTRF) assays [Choi et al., Bioorg. Med. Chem. Lett., 20:2033-2037]. Assays consist of enzymes mixed with serially diluted compounds and peptide substrates in a kinase reaction buffer (250 mM HEPES (pH 7.0), 0.5 mM orthovanadate, 0.05% bovine serum albumin, 0.1% NaN3). Following the addition of reagents for detection, the TR-FRET signal was measured using an EnVision multi-label reader (Perkin Elmer, Waltham, MA).

Insulin receptor = Insulin receptor (Homo sapiens, UniProt P06213)
Method: as §1

[2] = biological target: Epidermal growth factor receptor (Homo sapiens, UniProt P00533)
Method: as §1

Chain of ALK tyrosine kinase receptor (Q9UM73 whole entry): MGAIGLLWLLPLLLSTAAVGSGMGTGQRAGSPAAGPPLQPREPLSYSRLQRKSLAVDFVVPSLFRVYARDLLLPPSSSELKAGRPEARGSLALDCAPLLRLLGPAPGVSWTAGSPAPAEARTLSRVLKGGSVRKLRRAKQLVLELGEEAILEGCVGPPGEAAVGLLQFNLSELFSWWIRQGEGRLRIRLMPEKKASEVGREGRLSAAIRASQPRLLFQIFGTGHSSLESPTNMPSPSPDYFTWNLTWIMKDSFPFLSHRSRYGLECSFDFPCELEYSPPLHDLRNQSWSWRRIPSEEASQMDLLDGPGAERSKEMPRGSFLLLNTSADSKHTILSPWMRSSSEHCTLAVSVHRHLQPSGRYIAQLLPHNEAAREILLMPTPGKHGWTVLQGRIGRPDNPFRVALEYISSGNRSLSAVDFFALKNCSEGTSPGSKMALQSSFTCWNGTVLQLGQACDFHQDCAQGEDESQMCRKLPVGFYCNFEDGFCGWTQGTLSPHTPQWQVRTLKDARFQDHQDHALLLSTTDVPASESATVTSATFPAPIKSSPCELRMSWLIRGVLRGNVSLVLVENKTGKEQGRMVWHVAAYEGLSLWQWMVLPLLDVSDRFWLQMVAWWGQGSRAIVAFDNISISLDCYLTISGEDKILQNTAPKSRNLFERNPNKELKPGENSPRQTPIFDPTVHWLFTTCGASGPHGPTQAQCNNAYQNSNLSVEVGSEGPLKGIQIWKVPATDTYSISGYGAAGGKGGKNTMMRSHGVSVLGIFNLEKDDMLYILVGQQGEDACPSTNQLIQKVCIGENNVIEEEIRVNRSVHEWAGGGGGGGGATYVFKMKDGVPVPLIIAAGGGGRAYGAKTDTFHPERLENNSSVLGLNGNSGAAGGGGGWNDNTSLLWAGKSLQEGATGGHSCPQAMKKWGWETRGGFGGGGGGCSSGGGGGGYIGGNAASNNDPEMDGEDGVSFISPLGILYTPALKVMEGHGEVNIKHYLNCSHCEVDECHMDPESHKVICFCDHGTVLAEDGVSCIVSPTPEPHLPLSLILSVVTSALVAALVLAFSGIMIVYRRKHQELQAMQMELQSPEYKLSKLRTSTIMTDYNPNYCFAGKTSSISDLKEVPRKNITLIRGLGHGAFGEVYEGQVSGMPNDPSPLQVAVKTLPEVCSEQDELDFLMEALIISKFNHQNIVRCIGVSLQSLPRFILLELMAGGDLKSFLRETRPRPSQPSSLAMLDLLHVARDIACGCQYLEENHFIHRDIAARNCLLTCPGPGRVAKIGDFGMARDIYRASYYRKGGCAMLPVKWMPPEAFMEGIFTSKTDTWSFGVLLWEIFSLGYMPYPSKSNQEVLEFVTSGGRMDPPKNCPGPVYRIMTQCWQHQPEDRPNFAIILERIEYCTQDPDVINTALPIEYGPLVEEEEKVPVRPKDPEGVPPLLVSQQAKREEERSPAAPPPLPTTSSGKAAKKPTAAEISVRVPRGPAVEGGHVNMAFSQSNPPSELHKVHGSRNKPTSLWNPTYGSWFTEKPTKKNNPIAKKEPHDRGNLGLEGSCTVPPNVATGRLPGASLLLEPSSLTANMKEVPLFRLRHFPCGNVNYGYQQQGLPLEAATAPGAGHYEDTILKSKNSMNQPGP
Chain of Insulin receptor (P06213 28-758 limits assumed): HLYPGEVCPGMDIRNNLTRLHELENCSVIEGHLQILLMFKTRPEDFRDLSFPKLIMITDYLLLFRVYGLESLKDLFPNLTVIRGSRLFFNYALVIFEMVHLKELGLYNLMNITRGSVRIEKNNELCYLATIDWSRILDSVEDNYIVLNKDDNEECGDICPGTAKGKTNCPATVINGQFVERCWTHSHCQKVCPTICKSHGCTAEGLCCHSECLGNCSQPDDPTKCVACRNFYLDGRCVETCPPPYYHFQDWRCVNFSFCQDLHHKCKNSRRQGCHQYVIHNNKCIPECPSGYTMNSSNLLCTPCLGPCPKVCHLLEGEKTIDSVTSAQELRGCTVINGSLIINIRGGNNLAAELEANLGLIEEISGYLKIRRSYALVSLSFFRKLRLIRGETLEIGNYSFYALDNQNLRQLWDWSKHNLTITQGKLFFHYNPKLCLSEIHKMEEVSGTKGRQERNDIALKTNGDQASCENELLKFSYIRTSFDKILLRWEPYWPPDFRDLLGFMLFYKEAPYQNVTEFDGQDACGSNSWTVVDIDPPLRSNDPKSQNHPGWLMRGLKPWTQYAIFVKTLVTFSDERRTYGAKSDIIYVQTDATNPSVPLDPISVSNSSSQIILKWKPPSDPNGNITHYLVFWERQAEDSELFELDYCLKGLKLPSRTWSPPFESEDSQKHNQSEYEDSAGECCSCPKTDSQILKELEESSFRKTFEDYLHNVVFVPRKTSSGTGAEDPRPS
Chain of Insulin receptor (P06213 763-1382 limits assumed): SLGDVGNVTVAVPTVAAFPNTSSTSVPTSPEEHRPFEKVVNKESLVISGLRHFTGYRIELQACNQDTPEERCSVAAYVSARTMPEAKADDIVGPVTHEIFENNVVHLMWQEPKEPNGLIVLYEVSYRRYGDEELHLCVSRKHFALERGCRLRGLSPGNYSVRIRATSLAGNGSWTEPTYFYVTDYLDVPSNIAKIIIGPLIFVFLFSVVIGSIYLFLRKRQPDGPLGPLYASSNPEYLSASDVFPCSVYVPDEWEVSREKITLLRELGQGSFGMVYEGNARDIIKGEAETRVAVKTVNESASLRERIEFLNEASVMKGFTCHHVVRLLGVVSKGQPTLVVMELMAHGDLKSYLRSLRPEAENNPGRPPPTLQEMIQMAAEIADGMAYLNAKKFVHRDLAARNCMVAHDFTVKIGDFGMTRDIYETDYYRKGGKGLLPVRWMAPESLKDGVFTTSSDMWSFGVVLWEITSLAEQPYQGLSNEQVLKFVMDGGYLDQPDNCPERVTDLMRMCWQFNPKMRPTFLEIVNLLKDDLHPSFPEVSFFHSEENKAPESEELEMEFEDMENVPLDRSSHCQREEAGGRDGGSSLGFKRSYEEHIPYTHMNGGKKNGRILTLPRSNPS
Chain of Epidermal growth factor receptor (P00533 whole entry): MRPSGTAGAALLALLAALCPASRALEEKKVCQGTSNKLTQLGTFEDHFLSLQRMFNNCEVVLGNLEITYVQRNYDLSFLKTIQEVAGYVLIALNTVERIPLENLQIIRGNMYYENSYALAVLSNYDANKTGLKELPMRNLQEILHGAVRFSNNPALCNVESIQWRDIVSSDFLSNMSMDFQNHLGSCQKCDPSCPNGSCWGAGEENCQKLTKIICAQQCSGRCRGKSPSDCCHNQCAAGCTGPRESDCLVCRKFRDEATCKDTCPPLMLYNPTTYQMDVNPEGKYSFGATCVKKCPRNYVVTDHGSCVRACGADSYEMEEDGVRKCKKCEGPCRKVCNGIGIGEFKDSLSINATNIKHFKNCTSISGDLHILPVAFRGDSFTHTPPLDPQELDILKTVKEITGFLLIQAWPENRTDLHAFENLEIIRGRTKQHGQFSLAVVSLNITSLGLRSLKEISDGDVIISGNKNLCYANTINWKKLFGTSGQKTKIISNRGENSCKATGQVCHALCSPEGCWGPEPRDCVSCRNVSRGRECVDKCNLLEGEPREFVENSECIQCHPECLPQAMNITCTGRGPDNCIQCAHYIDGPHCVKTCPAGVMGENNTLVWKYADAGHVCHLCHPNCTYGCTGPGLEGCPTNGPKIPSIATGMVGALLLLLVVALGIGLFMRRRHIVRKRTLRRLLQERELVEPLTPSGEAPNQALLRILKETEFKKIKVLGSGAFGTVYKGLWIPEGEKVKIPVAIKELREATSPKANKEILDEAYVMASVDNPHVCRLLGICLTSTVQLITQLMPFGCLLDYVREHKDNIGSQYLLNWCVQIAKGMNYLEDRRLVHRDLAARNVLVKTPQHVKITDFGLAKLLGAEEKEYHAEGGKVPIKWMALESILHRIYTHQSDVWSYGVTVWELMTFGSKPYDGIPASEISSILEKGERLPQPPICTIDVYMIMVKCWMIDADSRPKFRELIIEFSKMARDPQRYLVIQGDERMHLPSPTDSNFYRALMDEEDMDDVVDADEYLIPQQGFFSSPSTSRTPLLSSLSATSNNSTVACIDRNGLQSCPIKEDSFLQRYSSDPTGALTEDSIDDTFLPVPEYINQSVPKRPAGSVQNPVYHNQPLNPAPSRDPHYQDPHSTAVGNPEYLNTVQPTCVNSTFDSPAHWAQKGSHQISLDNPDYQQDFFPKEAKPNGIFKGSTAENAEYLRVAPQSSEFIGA

IC50 [1]: 0.81 µM
IC50 (Insulin receptor): > 10 µM
IC50 [2]: > 10 µM
Structure (SMILES): O=c1c2cc(O)c(O)cc2oc2cc(O)c(C3O[C@H](CO)[C@@H](O)[C@H](O)[C@H]3O)c(O)c12 (stereo partly drawn) [Mangiferin]
